Assay results published in ChEMBL document CHEMBL5729264, “Bicyclic compounds” (2022).

Assay: Dual-Glo Luciferase Assay: The Dual-Glo Luciferase Reagent was prepared by transferring the contents of one bottle of Dual-Glo Luciferase Buffer to one bottle of Dual-Glo Luciferase Substrate to create the Dual-Glo Luciferase Reagent. Mixing was performed by inversion until the substrate was thoroughly dissolved. After mixing, the reagent was aliquoted into 15 ml tubes. In the afternoon (24 hrs post compound treatment), the DMEM+medium in the 384 well plates were aspirated by Microplate Washer.Measuring firefly luciferase activity: 20 ul Dual-Glo Luciferase Reagent was added to the 384-well plates. The plates were protected from light to prevent interference with the assay. The plates were shaken for 1 min followed centrifuging plates at 1000 rpm for 30 seconds. After waiting at least 10 minutes, the firefly luminescence was measured by Envision.Measuring renilla luciferase activity: 20 ul Stop-Glo Reagent was added to the 384-well plates. The plates were shaken for 1 min and then centrifuged at 1000 rpm for 30 seconds. After waiting at least 10 minutes, the renilla luminescence was measured by Envision.Compound IC50 and maximum inhibition on the firefly luciferase and renilla luciferase activities were reported separately.

IC50	SMILES
in the range around 2000 nM	C[C@@H](NC(=O)c1ccc2c(Oc3ccc(C(F)(F)F)cc3)cccc2c1)c1cc(N(C)C)ccn1
< 100 nM	C[C@H](CO)NC(=O)c1cnc2c(Oc3ccc(C(F)(F)F)cc3)cc(F)c(F)c2c1
in the range around 550 nM	C[C@H](NC(=O)c1ccc2c(Oc3ccc(C(F)(F)F)cc3)cccc2c1)c1cccc(N(C)C)n1
< 100 nM	COc1cc(Oc2ccc(C(F)(F)F)cc2)c2ncc(C(=O)N[C@@H](C)c3ccccn3)cc2c1
< 100 nM	C[C@H](NC(=O)c1ccc2c(Oc3ccc(C(F)(F)F)cc3)cccc2c1)C1COC1
< 100 nM	C[C@@H](NC(=O)c1ccc2c(Oc3ccc(C(F)(F)F)cc3)cccc2c1)C1CCNCC1
< 100 nM	C[C@H](NC(=O)c1cnc2c(Oc3ccc(C(F)(F)F)cc3)cccc2c1)c1ccccn1
< 100 nM	C[C@@H](NC(=O)c1ccc2c(Oc3ccc(C(F)(F)F)cc3)cccc2c1)c1cc(N)ccn1
< 100 nM	C[C@H](CCNCC(F)F)NC(=O)c1ccc2c(Oc3ccc(C(F)(F)F)cc3)cccc2c1
< 100 nM	COC[C@H](C)NC(=O)c1cnc2c(Oc3ccc(C(F)(F)F)cc3)cccc2c1
in the range around 550 nM	C[C@@H](NC(=O)c1ccc2c(Oc3ccc(C(F)(F)F)cc3)cccc2c1)c1nnnn1C
in the range around 550 nM	CC(=O)N1CC([C@@H](C)NC(=O)c2ccc3c(Oc4ccc(C(F)(F)F)cc4)cccc3c2)C1
in the range around 550 nM	C[C@H](NC(=O)c1ccc2c(Oc3ccc(C(F)(F)F)cc3)cccc2c1)c1cn(C)cn1
in the range around 550 nM	CC(=O)N1CC([C@H](C)NC(=O)c2ccc3c(Oc4ccc(C(F)(F)F)cc4)cccc3c2)C1
in the range around 550 nM	CC(C)N1CCC([C@@H](C)NC(=O)c2ccc3c(Oc4ccc(C(F)(F)F)cc4)cccc3c2)CC1
in the range around 550 nM	C[C@@H](NC(=O)c1ccc2c(Oc3ccc(C(F)(F)F)cc3)cccc2c1)c1nccn1C
< 100 nM	O=C(NC(CCO)c1ccccn1)c1ccc2c(Oc3ccc(C(F)(F)F)cc3)cccc2c1 (stereo not given)
in the range around 550 nM	C[C@@H](NC(=O)c1ccc2c(Oc3ccc(C(F)(F)F)cc3)cccc2c1)C1CCN(CCF)CC1
< 100 nM	C[C@@H](NC(=O)c1ccc2c(Oc3ccc(C(F)(F)F)cc3)cccc2c1)C1CN(CCF)C1
< 100 nM	CC(C)NC(=O)c1ccc2c(Oc3ccc(C(F)(F)F)cc3)nccc2c1
in the range around 550 nM	CC(C)N1CC([C@H](C)NC(=O)c2ccc3c(Oc4ccc(C(F)(F)F)cc4)cccc3c2)C1
in the range around 550 nM	C[C@@H](NC(=O)c1ccc2c(Oc3ccc(C(F)(F)F)cc3)cccc2c1)C1CN(CCCCO)C1
< 100 nM	COC[C@H](C)NC(=O)c1ccc2c(Oc3ccc(C(F)(F)F)cc3)cccc2c1
< 100 nM	CC(C)NC(=O)c1ccc2c(Oc3ccc(C(F)(F)F)cc3)cccc2n1

IC50	SMILES
< 100 nM	COC[C@@H](C)NC(=O)c1ccc2c(Oc3ccc(C(F)(F)F)cc3)cccc2c1
< 100 nM	C#C[C@H](C)NC(=O)c1ccc2c(Oc3ccc(C(F)(F)F)cc3)cccc2c1
< 100 nM	CC(C)NC(=O)c1ccc2c(Oc3ccc(Cl)cc3)cccc2c1
in the range around 550 nM	O=C(N[C@@H](CO)c1ccccn1)c1ccc2c(Oc3ccc(C(F)(F)F)cc3)cccc2c1
< 100 nM	CC#C[C@@H](C)NC(=O)c1ccc2c(Oc3ccc(C(F)(F)F)cc3)cccc2c1
in the range around 550 nM	C[C@H](CN)NC(=O)c1ccc2c(Oc3ccc(C(F)(F)F)cc3)cccc2c1
< 100 nM	CNCC[C@@H](C)NC(=O)c1ccc2c(Oc3ccc(C(F)(F)F)cc3)cccc2c1
< 100 nM	C[C@@H](NC(=O)c1ccc2c(Oc3ccc(C(F)(F)F)cc3)cccc2c1)c1cn(C)cn1
< 100 nM	O=C(NC(CO)c1ccccn1)c1cnc2c(Oc3ccc(C(F)(F)F)cc3)cccc2c1 (stereo not given)
in the range around 550 nM	C[C@H](NC(=O)c1ccc2c(Oc3ccc(C(F)(F)F)cc3)cccc2c1)C1(O)CNC1
in the range around 2000 nM	C[C@@H](NC(=O)c1ccc2c(Oc3ccc(C(F)(F)F)cc3)cccc2c1)c1cccnc1N
< 100 nM	CC(NC(=O)c1ccc2c(Oc3ccc(C(F)(F)F)cc3)cccc2c1)c1cc(Br)ccn1 (stereo not given)
in the range around 550 nM	COC[C@@H](C)NC(=O)c1cnc2c(Oc3ccc(C(F)(F)F)cc3)cccc2c1
in the range around 550 nM	C[C@@H](NC(=O)c1ccc2c(Oc3ccc(C(F)(F)F)cc3)cccc2c1)C1CN(CCO)C1
< 100 nM	C[C@H](CO)NC(=O)c1cnc2c(Oc3ccc(C(F)(F)F)cc3)cccc2c1
< 100 nM	O=C(N[C@@H](CCO)c1ccccn1)c1ccc2c(Oc3ccc(C(F)(F)F)cc3)cccc2c1
< 100 nM	C[C@H](CCNCCF)NC(=O)c1ccc2c(Oc3ccc(C(F)(F)F)cc3)cccc2c1
< 100 nM	CC(C)NC(=O)c1ccc2c(Oc3ccc(F)c(F)c3)cccc2c1
in the range around 550 nM	CCN1CC([C@H](C)NC(=O)c2ccc3c(Oc4ccc(C(F)(F)F)cc4)cccc3c2)C1
< 100 nM	C[C@H](NC(=O)c1cc2cccc(Oc3ccc(C(F)(F)F)cc3)c2s1)c1ccccn1
< 100 nM	C[C@H](NC(=O)c1cnc2c(Oc3ccc(C(F)(F)F)cc3)cccc2c1)c1cccc2nc[nH]c12
< 100 nM	C[C@@H](NC(=O)c1ccc2c(Oc3ccc(C(F)(F)F)cc3)cccc2c1)C1CCN(C)CC1
< 100 nM	C[C@H](CO)NC(=O)c1cc2cccc(Oc3ccc(C(F)(F)F)cc3)c2s1

Second part, the compound before the results:

SMILES	IC50
C[C@H](NC(=O)c1ccc2c(Oc3ccc(C(F)(F)F)cc3)cccc2c1)c1cnccn1	in the range around 550 nM
CNS(=O)(=O)c1ccc2c(Oc3ccc(C(F)(F)F)cc3)cccc2c1	< 100 nM
CC#C[C@H](C)NC(=O)c1ccc2c(Oc3ccc(C(F)(F)F)cc3)cccc2c1	< 100 nM
CN(C#N)CCCNC(=O)c1ccc2c(Oc3ccc(C(F)(F)F)cc3)cccc2c1	< 100 nM
C[C@H](NC(=O)c1ccc2c(Oc3ccc(C(F)(F)F)cc3)cccc2c1)C1CNC1	< 100 nM
CS(=O)(=O)NC(=O)c1ccc2c(Oc3ccc(F)c(F)c3)cccc2c1	< 100 nM
C[C@@H](NC(=O)c1ccc2c(Oc3ccc(C(F)(F)F)cc3)cccc2c1)C1(O)CNC1	< 100 nM
O=C(NC(CO)Cc1ccccn1)c1ccc2c(Oc3ccc(C(F)(F)F)cc3)cccc2c1 (stereo not given)	< 100 nM
CCN1CCC([C@@H](C)NC(=O)c2ccc3c(Oc4ccc(C(F)(F)F)cc4)cccc3c2)CC1	in the range around 550 nM
C[C@@H](NC(=O)c1ccc2c(Oc3ccc(C(F)(F)F)cc3)cccc2c1)C1CCN(CCO)CC1	in the range around 550 nM
N#CCCNC(=O)c1ccc2c(Oc3ccc(C(F)(F)F)cc3)cccc2c1	< 100 nM
C[C@@H](CCN)NC(=O)c1ccc2c(Oc3ccc(C(F)(F)F)cc3)cccc2c1	< 100 nM
CN(C#N)CCNC(=O)c1ccc2c(Oc3ccc(C(F)(F)F)cc3)cccc2c1	< 100 nM
C[C@H](CCN(C)C)NC(=O)c1ccc2c(Oc3ccc(C(F)(F)F)cc3)cccc2c1	< 100 nM
C[C@H](NC(=O)c1ccc2c(Oc3ccc(C(F)(F)F)cc3)cccc2c1)C1CN(CCF)C1	in the range around 2000 nM
C[C@@H](NC(=O)c1ccc2c(Oc3ccc(C(F)(F)F)cc3)cccc2c1)c1ccccn1	in the range around 550 nM
O=C(N[C@H](CCO)c1ccccn1)c1ccc2c(Oc3ccc(C(F)(F)F)cc3)cccc2c1	in the range around 550 nM
O=C(NC1(c2ccccc2)CC1)c1ccc2c(Oc3ccc(C(F)(F)F)cc3)cccc2c1	< 100 nM
C[C@@H](NC(=O)c1ccc2c(Oc3ccc(C(F)(F)F)cc3)cccc2c1)C1CN(C2CC2)C1	< 100 nM

SMILES	IC50
C[C@H](NC(=O)c1ccc2c(Oc3ccc(C(F)(F)F)cc3)cccc2c1)C1(F)CNC1	in the range around 2000 nM
C[C@@H](NC(=O)c1ccc2c(Oc3ccc(C(F)(F)F)cc3)cccc2c1)c1nnn(C)n1	in the range around 550 nM
CC(C)NC(=O)c1ccc2c(Oc3ccc(C(F)(F)F)cc3)ccnc2c1	in the range around 550 nM
C[C@H](NC(=O)c1ccc2c(Oc3ccc(C(F)(F)F)cc3)cccc2c1)c1c[nH]cn1	< 100 nM
C[C@H](CO)NC(=O)c1ccc2c(Oc3ccc(C(F)(F)F)cc3)nccc2c1	< 100 nM
C[C@H](NC(=O)c1ccc2c(Oc3ccc(C(F)(F)F)cc3)cccc2c1)c1cccnc1N	< 100 nM
C[C@@H](NC(=O)c1ccc2c(Oc3ccc(C(F)(F)F)cc3)cccc2c1)c1cnccn1	< 100 nM
CC(C)NC(=O)c1ccc2c(Oc3ccc(Cl)c(Cl)c3)cccc2c1	< 100 nM
C[C@@H](CCO)NC(=O)c1ccc2c(Oc3ccc(C(F)(F)F)cc3)cccc2c1	< 100 nM
COc1cc(Oc2ccc(C(F)(F)F)cc2)c2ncc(C(=O)NC(CO)c3ccccn3)cc2c1 (stereo not given)	< 100 nM
N#CCNC(=O)c1ccc2c(Oc3ccc(C(F)(F)F)cc3)cccc2c1	< 100 nM
C[C@H](NC(=O)c1ccc2c(Oc3ccc(C(F)(F)F)cc3)cccc2c1)C1CN(C2CC2)C1	in the range around 2000 nM
C[C@@H](NC(=O)c1cnc2c(Oc3ccc(C(F)(F)F)cc3)cccc2c1)c1cccc2ccsc12	in the range around 550 nM
C[C@@H](NC(=O)c1ccc2c(Oc3ccc(C(F)(F)F)cc3)cccc2c1)c1cccc2cn[nH]c12	< 100 nM
O=C(N[C@@H](CO)C1CNC1)c1ccc2c(Oc3ccc(C(F)(F)F)cc3)cccc2c1	in the range around 2000 nM
C#CCNC(=O)c1ccc2c(Oc3ccc(C(F)(F)F)cc3)cccc2c1	< 100 nM
C#C[C@@H](C)NC(=O)c1ccc2c(Oc3ccc(C(F)(F)F)cc3)cccc2c1	< 100 nM
COc1cc(Oc2ccc(C(F)(F)F)cc2)c2ncc(C(=O)N[C@H](C)CO)cc2c1	< 100 nM
C[C@H](NC(=O)c1ccc2c(Oc3ccc(C(F)(F)F)cc3)cccc2c1)c1ccccc1Cl	< 100 nM
